Assays:
[1] = target: T1, caleosin–histatin 3 fusion protein (Homo sapiens, UniProt P15516); experiment: flotation of aggregated artificial oil bodies (emulsion layer thickness), light microscopy; assay type: binding; settings: equal volumes oil bodies and 2 mM catechin; 100 mM potassium phosphate, 50 mM KCl, pH 7.0; normalised to ECG; indirect, no caleosin-only control
T1 construct: gene HTN3; sesame caleosin lacking residues 101-115 fused with histatin 3; synthetic histatin DNA; E. coli BL21(DE3), insoluble pellet; about 29 kDa; with Caleosin (Peroxygenase)

[2] = target: T1, caleosin–histatin 3 fusion protein; experiment: atomic force and scanning electron microscopy of artificial oil bodies; assay type: binding; settings: 5 mM rutin; oil bodies in distilled water, dried on silicon wafer; oil bodies alone set as 100%; indirect, no caleosin-only control

T1 sequence (P15516 20-51): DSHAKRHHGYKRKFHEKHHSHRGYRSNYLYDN
T1 sequence (Q9SQ57 with tags, fused parts or gaps DEL101-115 partner): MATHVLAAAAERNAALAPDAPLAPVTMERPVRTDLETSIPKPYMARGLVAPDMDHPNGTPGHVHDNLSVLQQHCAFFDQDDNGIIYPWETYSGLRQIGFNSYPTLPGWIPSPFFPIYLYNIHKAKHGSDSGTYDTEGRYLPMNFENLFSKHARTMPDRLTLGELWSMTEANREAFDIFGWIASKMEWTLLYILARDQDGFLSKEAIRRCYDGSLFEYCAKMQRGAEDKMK

Compound | relative astringency (%) [1] | relative surface roughness (%) [2]
O=C(O[C@@H]1Cc2c(O)cc(O)cc2O[C@H]1c1ccc(O)c(O)c1)c1cc(O)c(O)c(O)c1 [CG, (−)-catechin gallate] | aggregation of artificial oil bodies interacting with each catechin was examined | 
Oc1cc(O)c2c(c1)O[C@H](c1cc(O)c(O)c(O)c1)[C@H](O)C2 [EGC, (−)-epigallocatechin] | aggregation of artificial oil bodies interacting with each catechin was examined | 
O=C(O[C@@H]1Cc2c(O)cc(O)cc2O[C@@H]1c1cc(O)c(O)c(O)c1)c1cc(O)c(O)c(O)c1 [EGCG, (−)-epigallocatechin gallate] | aggregation of artificial oil bodies interacting with each catechin was examined | 
O=C(O[C@@H]1Cc2c(O)cc(O)cc2O[C@H]1c1cc(O)c(O)c(O)c1)c1cc(O)c(O)c(O)c1 [GCG, (−)-gallocatechin gallate] | aggregation of artificial oil bodies interacting with each catechin was examined | 
Oc1cc(O)c2c(c1)O[C@@H](c1cc(O)c(O)c(O)c1)[C@H](O)C2 [GC, (−)-gallocatechin] | aggregation of artificial oil bodies interacting with each catechin was examined | 
Oc1cc(O)c2c(c1)O[C@H](c1ccc(O)c(O)c1)[C@H](O)C2 [EC, (−)-epicatechin] | aggregation of artificial oil bodies interacting with each catechin was examined | 
C[C@@H]1O[C@@H](OC[C@H]2O[C@@H](Oc3c(-c4ccc(O)c(O)c4)oc4cc(O)cc(O)c4c3=O)[C@H](O)[C@@H](O)[C@@H]2O)[C@H](O)[C@H](O)[C@H]1O [rutin] |  | a smooth surface was observed on artificial oil bodies complexed with rutin
Oc1cc(O)c2c(c1)O[C@H](c1ccc(O)c(O)c1)[C@@H](O)C2 [C, (+)-catechin] | aggregation of artificial oil bodies interacting with each catechin was examined | 

Reference: paper PMC9457659, “Exploring The Relative Astringency of Tea Catechins and Distinct Astringent Sensation of Catechins and Flavonol Glycosides via an In Vitro Assay Composed of Artificial Oil Bodies” (Molecules, 2022)
